Data from patent publication US20250360114A1, “INTRAVENOUS RIFABUTIN FORMULATION AND METHODS OF MAKING” (BIOVERSYS AG, priority 2024, published 2025).

Assays:
[1] = Solubility of rifabutin in alkanes; type: physicochemical
[2] = Sub-visible particle test (10 mg/mL in 0.9% saline, particle counter); type: physicochemical
Procedure: As these particle forming impurities are not described in the current pharmacopeial analytical methods, a new testing method was developed which is described in the methods below. In brief, rifabutin powder is dissolved in a mixture of dimethyl isosorbide, acetic acid and water. Subsequently, the obtained solution is diluted in 0.9% saline to a final concentration of 10 mg/mL and sub-visible particles are determined. The established limits for this test are: (1) not more than 12.5 particles/mL greater than 10 μm in diameter, and (2) not more than 3 particles/mL greater than 25 μm in diameter. Considering that current concentrations used for the intravenous administration of rifabutin are well below 10 mg/mL, these limits are much more stringent than the current pharmacopeial limits.
About 400 mg of rifabutin is dissolved in 2 mL of a mixture of isosorbide dimethyl ether (DMI) and acetic acid in water (40% DMI, 2.4% acetic acid). The obtained solution is filtered through a 0.2 μm Nylon filter and […] of 0.9% saline solution to a final concentration of 10 mg/mL. Solutions are stirred for 15 min on a roller mixer to allow sub-visible particle formation.
Sub-visible particles are determined using a suitable instrument (e.g. PAMAS SVSS particle counter). Particle numbers in the 10 mg/mL solution should be not more than 12.5 particles/mL greater 10 μm and not more than […] greater 25 μm to pass the test.

[3] = Method 1, Example 1 (pentane Soxhlet extraction)
[4] = Method 2, Example 2 (pentane / silica gel columns, acetone elution)
[5] = Method 3, Example 3 (dissolved in n-heptane 50° C., filtered)

Structure (SMILES)	Solubility [1]	Sub-visible particles ≥10 μm [2, 3] [particles/mL]	Sub-visible particles ≥25 μm [2, 3] [particles/mL]	Sub-visible particles ≥10 μm [2, 4] [particles/mL]	Sub-visible particles ≥25 μm [2, 4] [particles/mL]	Sub-visible particles ≥10 μm [2, 5] [particles/mL]	Sub-visible particles ≥25 μm [2, 5] [particles/mL]
CO[C@H]1/C=C/O[C@@]2(C)Oc3c(C)c(O)c4c(c3C2=O)C2=NC3(CCN(CC(C)C)CC3)NC2=C(NC(=O)/C(C)=C\C=C\[C@H](C)[C@H](O)[C@@H](C)[C@@H](O)[C@@H](C)[C@H](OC(C)=O)[C@@H]1C)C4=O [Rifabutin]	low solubility	–	–	–	–	–	–
CO[C@H]1/C=C/O[C@@]2(C)Oc3c(C)c(O)c4c(c3C2=O)C2=NC3(CCN(CC(C)C)CC3)NC2=C(NC(=O)/C(C)=C\C=C\[C@H](C)[C@H](O)[C@@H](C)[C@@H](O)[C@@H](C)[C@H](OC(C)=O)[C@@H]1C)C4=O [original, rifabutin]	–	138.3	16.3	1804.0	98.7	1804.0	98.7
CO[C@H]1/C=C/O[C@@]2(C)Oc3c(C)c(O)c4c(c3C2=O)C2=NC3(CCN(CC(C)C)CC3)NC2=C(NC(=O)/C(C)=C\C=C\[C@H](C)[C@H](O)[C@@H](C)[C@@H](O)[C@@H](C)[C@H](OC(C)=O)[C@@H]1C)C4=O [purified, rifabutin]	–	8.4	0.4	2.6	0.0	7.1	0.2
